Data: US20170290820A1, “METHODS AND COMPOSITIONS FOR TREATING BETA-THALASSEMIA AND SICKLE CELL DISEASE” (Academia Sinica, priority 2013, published 2017)
Converted amounts (≈) assume the structure as drawn. Where a name gives a salt, the structure may show the parent alone. Read-outs that look alike come from different tables or passages of the source.

Assays:
[1] = tested on: γ globin gene; assay: γ globin gene induction by relative quantitative RT-PCR; format: cell-based, human; conditions: for γ globin induction (IC50): Table 3, γ globin mRNA induction fold at the compound's IC50, 3 days; for EC (μM) induction of HU IC50 (2.3 fold): concentration inducing γ globin gene expression 2.3-fold, primary human erythroid cells
Experimental: After 3 days of drug-treatment, the total RNA was extracted by RNA Spin mini kit (Ge-Healthcare) and reverse-transcription was performed by using superscript II (Invitrogen) followed the manufactors instruction. Quantitative PCR was performed on LightCycler with using STBR green master mix followed the manufactors instruction (Roche). The absolute quantitative RT-PCR was calculated by the standard curve with supplying a known copy number of plasmids. The relative quantitative RT-PCR was normalized to the expression levels of the β-actin and compared to the mock control.
To search for new agents, which are capable of inducing the expression of γ globin, a series of naphthalimide derivatives with various substituent(s) on the naphthalene ring and the heterocyclic N-atom (A1-A14, B1-B4, C1-C5, D1, and E1-E3, FIG. 2) were synthesized. These derivatives were subjected to evaluating the γ globin induction abilities in differentiated peripheral blood mononuclear cells (PBMCs). The PBMCs isolated from the peripheral blood of donors were expanded and differentiated for a total of 14 days in a two-phase liquid culture. The resulted primary erythoid cells were then treated with different dosages of naphthalimide derivatives individually for another 3 days. The expression levels of the endogenous γ globin gene were estimated by relative quantitative RT-PCR and the proliferation rates of these cells were examined by AlamarBlue cell viability assay. […]; 2-4.5-folds induction of the γ globin gene expression in the compounds-treated cells (FIG. 3).

[2] = tested on: primary human erythroid cells; assay: AlamarBlue cell viability / proliferation assay; conditions: for IC50: 3 days
[3] = solubility in DMSO and H2O; format: physicochemical; conditions: for water-solubility (in words): comparison
[4] = DMSO, organic solvent or mixture, read-out: solubility DMSO
[5] = Table 1a, concentration reducing proliferation rate of primary human erythroid cells by 50%
[6] = water, H2O, read-out: solubility H2O
[7] = Table 3, primary human erythroid cells, proliferation reduced by 50%

SMILES	melting point	IC50 [2, 5]	other results
CN(C)CCN1C(=O)c2cccc3c(Cl)ccc(c23)C1=O (as salt: hydrochloride) [Compound B4, N-(2-dimethylamino-ethyl)-4-chloro-1,8-naphthalimide hydrochloride]	> 280 °C		
O=C1c2cccc3cccc(c23)C(=O)N1c1ccccc1 [Compound A1, N-Phenyl-1,8-naphthalimide]	218 to 220 °C	> 100 µM	solubility [3, 4]: 10 mM (≈ 2730 µg/mL)
O=C1c2cccc3c([N+](=O)[O-])ccc(c23)C(=O)N1c1ccccc1 [Compound A2, N-Phenyl-4-nitro-1,8-naphthalimide]	> 280 °C	0.3 µM	γ globin induction (IC50) [1]: 1.1 fold
O=C1c2cccc3c([N+](=O)[O-])ccc(c23)C(=O)N1c1ccc(Cl)c(Cl)c1 [Compound A3, N-(3,4-Dichloro-phenyl)-4-nitro-1,8-naphthalimide]	> 280 °C	5.2 µM	
COc1cccc(N2C(=O)c3cccc4c([N+](=O)[O-])ccc(c34)C2=O)c1 [Compound A4, N-(3-Methoxy-phenyl)-4-nitro-1,8-naphthalimide]	> 280 °C	21 µM	
O=C(O)CCCc1ccc(N2C(=O)c3cccc4c([N+](=O)[O-])ccc(c34)C2=O)cc1 [Compound A5, N-(4-Butyric acid-phenyl)-4-nitro-1,8-naphthalimide]	254.5 to 256 °C	6.7 µM	
O=C1c2cccc3c(Cl)ccc(c23)C(=O)N1c1ccccc1 [Compound A6, N-Phenyl-4-chloro-1,8-naphthalimide]	263 to 265.5 °C	> 100 µM	
COc1cccc(N2C(=O)c3cccc4c(Cl)ccc(c34)C2=O)c1 [Compound A7, N-(3-Methoxy-phenyl)-4-chloro-1,8-naphthalimide]	> 280 °C	> 100 µM	
O=C1c2cccc3c(Cl)ccc(c23)C(=O)N1c1cccc(C(F)(F)F)c1 [Compound A8, N-(3-Trifluoromethyl-phenyl)-4-chloro-1,8-naphthalimide]	278 to 279 °C	> 100 µM	
O=C1c2cccc3c(Cl)ccc(c23)C(=O)N1c1cccc(Br)c1 [Compound A9, N-(3-Bromo-phenyl)-4-chloro-1,8-naphthalimide]	> 280 °C	> 100 µM	
O=C1c2cccc3c(Cl)ccc(c23)C(=O)N1c1cccc(Cl)c1 [Compound A10, N-(3-Chloro-phenyl)-4-chloro-1,8-naphthalimide]	273 to 275 °C	> 100 µM	
O=C1c2cccc3c(Cl)ccc(c23)C(=O)N1c1ccc(F)c(Br)c1 [Compound A11, N-(3-Bromo-4-fluoro-phenyl)-4-chloro-1,8-naphthalimide]	> 280 °C	> 100 µM	
O=C1c2cccc3c(Cl)ccc(c23)C(=O)N1c1ccc(F)cc1 [Compound A12, N-(4-Fluoro-phenyl)-4-chloro-1,8-naphthalimide]	274 to 276 °C	> 100 µM	
O=C1c2cccc3c(Cl)ccc(c23)C(=O)N1c1ccc(Br)cc1 [Compound A13, N-(4-Bromo-phenyl)-4-chloro-1,8-naphthalimide]	> 280 °C	> 100 µM	
O=C1c2cccc3c(Cl)ccc(c23)C(=O)N1c1ccc(Cl)c(Cl)c1 [Compound A14, N-(3,4-Dichloro-phenyl)-4-chloro-1,8-naphthalimide]	> 280 °C	> 100 µM	
CN(C)CCN1C(=O)c2cccc3cccc(c23)C1=O [Compound B1, N-(2-Dimethylamino-ethyl)-1,8-naphthalimide hydrochloride]		10.7 µM	γ globin induction (IC50) [1]: 4.1 fold; EC (μM) induction of HU IC50 (2.3 fold) [1]: 4.7 µM; water-solubility (in words) [3]: greatly improved water-solubility; solubility [3, 6]: > 100 mM; IC50 [2, 7]: 10.7 µM
CN(C)CCN1C(=O)c2cccc3c([N+](=O)[O-])ccc(c23)C1=O [Compound B2, N-(2-Dimethylamino-ethyl)-4-nitro-1,8-naphthalimide]	131 to 133 °C	2.6 µM	
CN(C)CCCN1C(=O)c2cccc3c([N+](=O)[O-])ccc(c23)C1=O [Compound B3, N-(3-Dimethylamino-propyl)-4-nitro-1,8-naphthalimide]		2.3 µM	
CN(C)CCN1C(=O)c2cccc3c(Cl)ccc(c23)C1=O [Compound B4, N-(2-dimethylamino-ethyl)-4-chloro-1,8-naphthalimide hydrochloride]		5 µM	γ globin induction (IC50) [1]: 3.3 fold; EC (μM) induction of HU IC50 (2.3 fold) [1]: 2.2 µM; water-solubility (in words) [3]: greatly improved water-solubility; solubility [3, 6]: > 100 mM; IC50 [2, 7]: 5 µM
CCN1C(=O)c2cccc3cccc(c23)C1=O [Compound C1, N-Ethyl-1,8-naphthalimide]		> 100 µM	
CN1C(=O)c2cccc3c([N+](=O)[O-])ccc(c23)C1=O [Compound C2, N-Methyl-4-nitro-1,8-naphthalimide]	209 to 212.5 °C	> 100 µM	
CCN1C(=O)c2cccc3c([N+](=O)[O-])ccc(c23)C1=O [Compound C3, N-Ethyl-4-nitro-1,8-naphthalimide]	191 to 192.5 °C	> 100 µM	
CN1C(=O)c2cccc3c(Cl)ccc(c23)C1=O [Compound C4, N-Methyl-4-chloro-1,8-naphthalimide]		> 100 µM	
CCN1C(=O)c2cccc3c(Cl)ccc(c23)C1=O [Compound C5, N-Ethyl-4-chloro-1,8-naphthalimide]	167 to 170 °C	> 100 µM	
CCOC(=O)CCCN1C(=O)c2cccc3c([N+](=O)[O-])ccc(c23)C1=O [Compound D1, N-(Butyric acid ethyl ester)-4-nitro-1,8-naphthalimide]	115 to 116 °C	6.3 µM	
Nc1ccc2c3c(cccc13)C(=O)N(c1ccccc1)C2=O [Compound E1, N-Phenyl-4-amino-1,8-naphthalimide]		2.2 µM	EC (μM) induction of HU IC50 (2.3 fold) [1]: 2.9 µM; solubility [3, 4]: 10 mM (≈ 2880 µg/mL); IC50 [2, 7]: 0.3 µM
CN(C)CCCN1C(=O)c2cccc3c(N)ccc(c23)C1=O [Compound E3, N-(3-dimethylamino-propyl)-4-amino-1,8-naphthalimide hydrochloride]		11.2 µM	γ globin induction (IC50) [1]: 2.7 fold; EC (μM) induction of HU IC50 (2.3 fold) [1]: 7.4 µM; water-solubility (in words) [3]: greatly improved water-solubility; solubility [3, 6]: > 100 mM; IC50 [2, 7]: 11.2 µM
C[S+]([O-])c1ccc(-c2nc(-c3ccncc3)c(-c3ccc(F)cc3)[nH]2)cc1 (centres unmarked) [SB203580, reference compound]			effect of pre-treatment on γ globin elevation triggered by S51021 and SS-2394 ([1]; data not shown): efficiently abolished

Second part, led by results:

melting point	SMILES	IC50 [2, 5]	other results
> 280 °C	CN(C)CCCN1C(=O)c2cccc3c(N)ccc(c23)C1=O (as salt: hydrochloride) [Compound E3, N-(3-dimethylamino-propyl)-4-amino-1,8-naphthalimide hydrochloride]		
129 to 130 °C	CN(C)CCN1C(=O)c2cccc3cccc(c23)C1O (centres unmarked) [BO-2476, 2-(2-(Dimethylamino)ethyl)-3-hydroxy-2,3-dihydro-1H-benzo[de]isoquinolin-1-one]		
253 to 254 °C	CN(C)CCN1Cc2cccc3cccc(c23)C1=O [BO-2477, 2-(2-(Dimethylamino)ethyl)-2,3-dihydro-1H-benzo[de]isoquinolin-1-one]		γ globin-inducing activity, rank among compounds tested ([1]; FIG. 8): highest γ globin-inducing activity; cytotoxicity IC50 against primary erythroid cells ([2]; FIG. 8, Example 2): relatively lower cytotoxicity
278 to 279 °C	CC(=O)Nc1ccc2c3c(cccc13)C(=O)N(CCN(C)C)C2=O [BO-2559, N-(2-(2-(Dimethylamino)ethyl)-1,3-dioxo-2,3-dihydro-1H-benzo[de]isoquinolin-6-yl)acetamide]		
253 to 254 °C	CN(C)CCN1Cc2cccc3c(N)ccc(c23)C1 [BO-2560, 2-(2-(Dimethylamino)ethyl)-2,3-dihydro-1H-benzo[de]isoquinolin-6-amine]		
251 to 252 °C	CN(C)CCN1Cc2cccc3c(N(C)C)ccc(c23)C1 [BO-2563, 2-(2-(Dimethylamino)ethyl)-N,N-dimethyl-2,3-dihydro-1H-benzo[de]isoquinolin-6-amine]		
253 to 254 °C	CCNc1ccc2c3c(cccc13)C(=O)N(CCN(C)C)C2=O [BO-2564, 2-(2-(Dimethylamino)ethyl)-6-(ethylamino)-1H-benzo[de]isoquinoline-1,3(2H)-dione]		
239 to 240 °C	CCNc1ccc2c3c(cccc13)CN(CCN(C)C)C2 [BO-2565, 2-(2-(dimethylamino)ethyl)-N-ethyl-2,3-dihydro-1H-benzo[de]isoquinolin-6-amine]		
